Source: patent US20260001875A1, “AMINOPYRIMIDINYL DERIVATIVES FOR THE TREATMENT OF PARKINSON'S DISEASE” (UNIVERSITY OF DUNDEE, priority 2022, published 2026)
Entries after “also recorded” stand apart in the source; their conditions may differ.

Key:
LRRK2 [1] = molecular target: T1, LRRK2 (Homo sapiens, UniProt Q5S007); experiment: NanoBRET-based ternary binding and cooperativity assay; design: fused on or other part: NanoLuc luciferase fused to LRRK2 as the BRET donor tag; conditions: permeabilized HEK293 cells, with VCB; read-out: IC50 LRRK2 engagement in the presence of VCB protein
T1 sequence (Q5S007 whole entry, the tested form may be a part): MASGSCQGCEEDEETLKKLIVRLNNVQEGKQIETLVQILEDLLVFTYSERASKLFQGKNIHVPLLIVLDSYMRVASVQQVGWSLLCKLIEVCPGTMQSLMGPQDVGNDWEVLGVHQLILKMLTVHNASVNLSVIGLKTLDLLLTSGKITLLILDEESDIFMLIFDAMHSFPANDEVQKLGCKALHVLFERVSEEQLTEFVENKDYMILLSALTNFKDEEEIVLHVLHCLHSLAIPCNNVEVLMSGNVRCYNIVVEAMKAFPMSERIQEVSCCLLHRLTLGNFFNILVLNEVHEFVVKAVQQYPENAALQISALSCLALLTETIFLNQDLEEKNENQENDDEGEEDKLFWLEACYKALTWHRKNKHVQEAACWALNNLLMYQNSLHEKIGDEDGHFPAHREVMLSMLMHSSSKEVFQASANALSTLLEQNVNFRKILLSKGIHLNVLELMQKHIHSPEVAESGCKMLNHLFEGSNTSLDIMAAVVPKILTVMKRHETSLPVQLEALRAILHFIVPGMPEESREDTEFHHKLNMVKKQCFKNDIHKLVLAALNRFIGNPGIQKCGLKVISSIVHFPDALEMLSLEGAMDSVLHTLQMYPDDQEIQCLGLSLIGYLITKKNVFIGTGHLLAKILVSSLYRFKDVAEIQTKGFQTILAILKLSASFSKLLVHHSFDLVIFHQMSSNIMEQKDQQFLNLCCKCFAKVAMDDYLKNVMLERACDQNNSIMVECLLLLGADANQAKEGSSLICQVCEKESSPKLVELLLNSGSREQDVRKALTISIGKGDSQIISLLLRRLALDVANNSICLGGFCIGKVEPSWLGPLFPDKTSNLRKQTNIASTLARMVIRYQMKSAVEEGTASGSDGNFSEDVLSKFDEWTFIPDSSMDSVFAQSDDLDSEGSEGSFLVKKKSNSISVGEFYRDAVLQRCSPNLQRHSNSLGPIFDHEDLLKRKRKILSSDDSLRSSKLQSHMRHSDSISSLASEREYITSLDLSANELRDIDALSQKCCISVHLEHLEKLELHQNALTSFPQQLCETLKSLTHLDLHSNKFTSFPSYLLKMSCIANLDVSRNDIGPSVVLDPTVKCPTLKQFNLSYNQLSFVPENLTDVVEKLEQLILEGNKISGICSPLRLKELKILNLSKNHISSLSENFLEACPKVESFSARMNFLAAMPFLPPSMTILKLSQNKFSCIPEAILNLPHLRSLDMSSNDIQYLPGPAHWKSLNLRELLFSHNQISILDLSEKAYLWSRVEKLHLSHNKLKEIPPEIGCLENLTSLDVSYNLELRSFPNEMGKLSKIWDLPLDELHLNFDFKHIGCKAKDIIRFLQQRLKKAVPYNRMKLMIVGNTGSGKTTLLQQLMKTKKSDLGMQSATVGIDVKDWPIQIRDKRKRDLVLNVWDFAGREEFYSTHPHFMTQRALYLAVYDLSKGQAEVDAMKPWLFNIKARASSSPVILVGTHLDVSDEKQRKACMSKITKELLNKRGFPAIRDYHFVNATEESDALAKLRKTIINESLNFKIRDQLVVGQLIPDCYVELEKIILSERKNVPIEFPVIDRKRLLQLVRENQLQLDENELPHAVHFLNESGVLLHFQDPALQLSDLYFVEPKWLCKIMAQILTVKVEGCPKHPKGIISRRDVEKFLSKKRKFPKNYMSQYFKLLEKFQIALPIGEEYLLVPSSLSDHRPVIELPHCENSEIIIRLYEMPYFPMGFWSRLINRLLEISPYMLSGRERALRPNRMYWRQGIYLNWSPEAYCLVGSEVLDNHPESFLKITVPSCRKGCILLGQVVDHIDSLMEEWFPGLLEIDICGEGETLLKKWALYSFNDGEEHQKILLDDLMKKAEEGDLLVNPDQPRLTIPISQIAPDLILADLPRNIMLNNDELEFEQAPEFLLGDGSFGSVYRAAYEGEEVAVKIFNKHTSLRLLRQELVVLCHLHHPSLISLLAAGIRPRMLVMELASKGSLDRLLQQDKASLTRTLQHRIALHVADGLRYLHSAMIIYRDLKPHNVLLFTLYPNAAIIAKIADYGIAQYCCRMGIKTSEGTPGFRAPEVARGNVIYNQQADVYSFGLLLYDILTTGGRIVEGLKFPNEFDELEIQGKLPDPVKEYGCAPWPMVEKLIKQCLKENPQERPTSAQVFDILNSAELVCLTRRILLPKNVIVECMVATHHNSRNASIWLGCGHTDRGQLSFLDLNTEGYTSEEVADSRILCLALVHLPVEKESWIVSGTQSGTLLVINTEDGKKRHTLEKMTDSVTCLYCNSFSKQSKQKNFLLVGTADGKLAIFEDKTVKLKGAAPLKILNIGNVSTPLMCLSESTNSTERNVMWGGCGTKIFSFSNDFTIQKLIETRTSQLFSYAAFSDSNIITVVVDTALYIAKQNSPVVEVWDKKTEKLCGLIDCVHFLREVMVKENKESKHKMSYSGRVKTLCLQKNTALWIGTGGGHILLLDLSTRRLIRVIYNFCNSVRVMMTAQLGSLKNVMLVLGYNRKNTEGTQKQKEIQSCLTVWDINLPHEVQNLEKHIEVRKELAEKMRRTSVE
Method: The HEK293 cells were transfected with LRRK2-NanoLuc fusion vector (Promega, NV3401) following Promega's protocol and seeded into white 384-well plate (Corning3570) at a density of 6000 cells/well. The cells were then treated with 50 μg/mL of digitonin, 125 nM of LRRK2 tracer, testing compounds at decreasing concentrations (11 concentrations with 2-fold serial dilution starting from 10 μM) or testing compounds and VCB mix (11 concentrations with 2-fold serial dilution starting from 10 μM compound for the compound. The first 6 concentrations of VCB start from 32 μM with 2-fold dilution, the last 5 concentrations of VCB keep at 1 μM), and NanoBRET NanoGlo Substrate (Promega) at concentration recommended by the manufacturer's protocol. In the maximum signal control samples (DMSO control), DMSO was added instead of testing compounds. In the minimum signal control samples (no tracer control), DMSO and LRRK2 tracer dilution buffer were used to replace testing compounds and LRRK2 tracer separately. The filtered luminescence was measured within 10 min following addition of the substrate on a PHERAstar (BMG LABTECH) plate reader equipped with a 450-nm bandpass filter (donor) and a 600-nm long pass filter (acceptor). The fractional occupancy was calculated according to the equation: fractional occupancy=(mBRETtesting compound−mBRETno tracer control)/(mBRETDMSO control−mBRETno tracer control).

LRRK2 [2] = molecular target: T1, LRRK2; experiment: LRRK2 degradation in PBMC; type: cell-based; design: endogenous in cells; host or cells: human peripheral blood mononuclear cells (PBMC)
Method: PBMC cells were separated from human blood following existing protocol (dx.doi.org/10.17504/protocols.io.bnhxmb7n) and pelleted by centrifugation at 1000 g for 2 min. The supernatant was discarded and the PBMC pellet was resuspended in PBS containing 2% FBS for washing. The suspension was centrifuged at 1000 g for 2 min again and the PBMC pellet was resuspended in RPMI-1640 (Gibco) media supplemented with 10% FBS. The cells were then seeded into 6-well plates and treated with testing compounds at indicated concentrations and time period. After treatment, the cells were collected into 2-ml Eppendorf tube and centrifuged at 500 g for 2 min to pellet the cells, the supernatant was discarded, and the pellet was resuspended in 1 ml PBS and centrifuged at 500 g for 2 min again. The PBMC pellet was lysed with 60 μL of lysis buffer containing 50 mM Tris-HCl, pH 7.5, 1% (v/v) Triton X-100, 1 mM EGTA, 1 mM sodium orthovanadate, 50 mM NaF, 0.1% (v/v) 2-mercaptoethanol, 10 mM 2-glycerophosphate, 5 mM sodium pyrophosphate, 0.1 μg/ml mycrocystin-LR (Enzo Life Sciences), 270 mM sucrose, 0.5 mM DIFP (Sigma, Cat #D0879) in addition to Complete EDTA-free protease inhibitor cocktail (Sigma-Aldrich Cat #11836170001). DIFP is highly toxic and must be prepared in a fume hood to a stock solution of 0.5 M in isopropanol. The lysed cells were then centrifuged at 1500 g for 15 min at 0° C. The supernatants were collected for analysis by quantitative immunoblotting. For long term storage, the supernatant was flash frozen and stored at −80° C. Protein concentrations of cell lysates were determined using Pierce™ BCA Protein Assay Kit (ThermoFisher).
Cell lysates containing a quarter of a volume of 4× NuPAGE LDS sample buffer (NP0007) supplemented with 5% β-mercaptoethanol, were heated at 95° C. for 5 minutes. 15 to 20 μg of samples were loaded onto pre-cast 4-12% Bis-Tris midi 20W or 26W gels (Thermofisher Scientific®, Cat #WG1402BOX or WG1403BOX) and resolved at 130 V for 2 hours with NuPAGE MOPS SDS running buffer (Thermofisher Scientific® Cat #NP0001-02). Proteins were electrophoretically transferred onto a 0.45 μm nitrocellulose membrane (GE Healthcare, Amersham Protran® Supported 0.45 mm NC) at 90 V for 90 min on ice in transfer buffer (48 mM Tris base and 39 mM glycine supplemented with 20% methanol). The transferred membrane was blocked with 5% (w/v) skim milk powder dissolved in tris-buffered saline with tween (TBS-T) (50 mM Tris base, 150 mM sodium chloride (NaCl), 0.1% (v/v) Tween-20) at room temperature for 1 hour. Membranes were washed three times with TBS-T and were incubated in primary antibody overnight at 4° C. Prior to secondary antibody incubation, membranes were washed three times for 15 minutes with TBS-T. The membranes were incubated with secondary antibody for 1 hour at room temperature, protected from light. Thereafter, the membranes were washed with TBS-T three times with a 15-minute incubation for each wash, and protein bands were acquired via near-infrared fluorescent detection using the Odyssey CLx imaging system and quantified using Image Studio software. Graphs were generated using Graphpad Prism version 8 software.
Monoclonal rabbit LRRK2 Ser935 (Cat #UDD2) was purified by MRC PPU Reagents and Services at the University of Dundee and was used at a final concentration of 1 μg/ml. Total LRRK2 (C-terminus) was from Antibodies Inc./Neuromab (Cat #75-253) and was diluted 1:1000. The MJFF monoclonal rabbit Rab10 pThr73, which was characterized previously (Lis et al., Biochem J. 2018 Jan. 2; 475(1):1-22.) was purchased from Abcam Inc. (ab230261) and diluted 1:1000. Mouse monoclonal alpha-tubulin (#3873) was purchased from Cell Signaling Technology and used at 1:1000. The mouse monoclonal anti-Rab10 total antibody was purchased from Nanotools (#0680-100/Rab10-605B11) and was used at a final concentration of 1 μg/ml. Mouse monoclonal Hif-1α was purchased from R&D Systems (Cat #MAB1536) and was diluted 1:1000.

`CNc1nc(Nc2ccc(C(=O)N3CCN(CCOCCOCCSC(C)(C)[C@H](NC(=O)C4(F)CC4)C(=O)N4C[C@H](O)C[C@H]4C(=O)NCc4ccc(-c5scnc5C)cc4)CC3)cc2OC)ncc1Cl` [SD75, (2S,4R)-1-((R)-3-((2-(2-(2-(4-(4-((5-chloro-4-(methylamino)pyrimidin-2-yl)amino)-3-methoxybenzoyl)piperazin-1-yl)ethoxy)ethoxy)ethyl)thio)-2-(1-fluorocyclopropane-1-carboxamido)-3-methylbutanoyl)-4-hydroxy-N-(4-(4-methylthiazol-5-yl)benzyl)pyrrolidine-2-carboxamide] gave an IC50 (LRRK2 [1]) of 1.4 µM.

With `CNc1nc(Nc2ccc(C(=O)N3CCN(C[C@H]4CC[C@@H](CSC(C)(C)[C@H](NC(=O)C5(F)CC5)C(=O)N5C[C@H](O)CC5C(=O)NCc5ccc(-c6scnc6C)cc5)CC4)CC3)cc2OC)ncc1Cl` (stereo partly shown) [XL01134] the IC50 (LRRK2 [1]) was 0.79 µM.

For `CNc1nc(Nc2ccc(C(=O)N3CCN(C[C@H]4CC[C@H](CSC(C)(C)[C@H](NC(=O)C5(F)CC5)C(=O)N5C[C@@H](O)CC5C(=O)NCc5ccc(-c6scnc6C)cc5)CC4)CC3)cc2OC)ncc1Cl` (stereo partly drawn) [Cis-XL01126, (2S,4S)-1-((R)-3-((((1r,4R)-4-((4-(4-((5-chloro-4-(methylamino)pyrimidin-2-yl)amino)-3-methoxybenzoyl)piperazin-1-yl)methyl)cyclohexyl)methyl)thio)-2-(1-fluorocyclopropane-1-carboxamido)-3-methylbutanoyl)-4-hydroxy-N-(4-(4-methylthiazol-5-yl)benzyl)pyrrolidine-2-carboxamide], the “LRRK2 degradation in PBMC (in words)” value (LRRK2 [2]; 4 h treatment) was “cannot degrade LRRK2”, the “LRRK2 degradation in PBMC (in words)” value (LRRK2 [2]; 24 h treatment) was “degraded little LRRK2; also recorded: cannot degrade LRRK2” and the “LRRK2 degradation in PBMC (in words)” value (LRRK2 [2]; time course at 300 nM) was “cannot degrade LRRK2”.

`CNc1nc(Nc2ccc(C(=O)N3CCN(C[C@H]4CC[C@H](CSC(C)(C)[C@H](NC(=O)C5(F)CC5)C(=O)N5C[C@H](O)CC5C(=O)NCc5ccc(-c6scnc6C)cc5)CC4)CC3)cc2OC)ncc1Cl` (stereo partly drawn) [XL01126, (2S,4R)-1-((R)-3-((((1R,4R)-4-((4-(4-((5-chloro-4-(methylamino)pyrimidin-2-yl)amino)-3-methoxybenzoyl)piperazin-1-yl)methyl)cyclohexyl)methyl)thio)-2-(1-fluorocyclopropane-1-carboxamido)-3-methylbutanoyl)-4-hydroxy-N-(4-(4-methylthiazol-5-yl)benzyl)pyrrolidine-2-carboxamide] gave an IC50 (LRRK2 [1]) of 0.35 µM, a DC50 (LRRK2 [2]; 4 h treatment) of 0.072 µM and a DC50 (LRRK2 [2]; 24 h treatment) of 0.017 µM. For the same compound, the “Dmax of LRRK2 degradation in PBMC” value (LRRK2 [2]; 24 h treatment) was 80-90% and the “T1/2 of LRRK2 degradation in PBMC” value (LRRK2 [2]; time course at 300 nM) was 2.4 h.
